These results are taken from publication PMC4703832, “Haem-activated promiscuous targeting of artemisinin in Plasmodium falciparum” (Nature Communications, 2015).

For one assay, the target named is T1, PyrK (pyruvate kinase) (Plasmodium falciparum, UniProt C6KTA4).
T1 construct: gene PF3D7_0626800
T1 sequence (C6KTA4 1-511): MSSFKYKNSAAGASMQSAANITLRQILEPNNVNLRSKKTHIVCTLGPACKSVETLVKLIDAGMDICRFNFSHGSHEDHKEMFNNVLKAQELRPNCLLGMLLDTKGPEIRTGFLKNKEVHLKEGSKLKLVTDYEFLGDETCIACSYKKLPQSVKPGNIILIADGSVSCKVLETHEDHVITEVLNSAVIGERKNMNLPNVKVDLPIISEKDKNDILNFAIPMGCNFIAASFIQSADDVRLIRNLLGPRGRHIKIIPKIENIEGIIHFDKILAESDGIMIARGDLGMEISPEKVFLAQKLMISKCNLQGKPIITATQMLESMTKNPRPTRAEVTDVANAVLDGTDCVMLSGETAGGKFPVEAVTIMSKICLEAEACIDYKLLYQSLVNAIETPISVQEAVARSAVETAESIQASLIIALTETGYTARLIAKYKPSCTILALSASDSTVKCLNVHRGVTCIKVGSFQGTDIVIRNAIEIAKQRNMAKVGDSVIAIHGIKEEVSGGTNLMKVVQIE
The assay can be described thus: pyruvate kinase inhibition assay, absorbance at […] nm. It counts as biochemical. The following applies: 0-80 uM artesunate, haemin 200 uM and L-ascorbic acid 200 uM, 4 h preincubation at 37 °C; covalent, haem-activated.

Assay [1] deals with T2, LDH (L-lactate dehydrogenase) (Plasmodium falciparum, UniProt Q76NM3).
T2 construct: gene PF3D7_1324900; gene amplified from 3D7 genomic DNA, pET28a, E. coli BL21(DE3)-star, Ni-NTA purified
T2 sequence (Q76NM3 1-316): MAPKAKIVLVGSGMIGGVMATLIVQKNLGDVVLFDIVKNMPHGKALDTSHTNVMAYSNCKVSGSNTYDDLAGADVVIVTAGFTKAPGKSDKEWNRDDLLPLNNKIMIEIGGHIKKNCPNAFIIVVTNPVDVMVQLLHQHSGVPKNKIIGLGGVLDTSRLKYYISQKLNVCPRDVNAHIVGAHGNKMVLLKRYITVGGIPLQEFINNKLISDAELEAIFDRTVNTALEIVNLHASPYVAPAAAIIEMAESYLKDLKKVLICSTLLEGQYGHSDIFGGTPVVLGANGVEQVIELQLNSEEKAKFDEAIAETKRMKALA
The assay can be described thus: LDH inhibition assay, absorbance at […] nm. Type of assay: biochemical. As to conditions: 0-80 uM artesunate, haemin 200 uM and L-ascorbic acid 200 uM, 4 h preincubation at 37 °C; covalent, haem-activated.

With `C[C@H]1[C@H](OC(=O)CCC(=O)O)O[C@@H]2O[C@@]3(C)CC[C@H]4[C@H](C)CC[C@@H]1[C@@]24OO3` [Arts, artesunate], the dose-dependent inhibition result (on PyrK (pyruvate kinase); in assay [1]) was “Functional assays showed that artesunate inhibits their enzymatic activities in a dose-dependent manner” throughout.
